Measured values: the NIST ThermoML archive (doi:10.1021/je401036f)
± gives the expanded uncertainty stated by the source.

Assay: xn = mol fraction of the nth substance listed
Conditions: 101 kPa, Liquid; for viscosity: Concentric cylinders viscometry; for mass density: Vibrating tube method

CC(O)CN (stereo not given) [1-amino-2-propanol] + CCC(C)O
Conditions | mass density, 313.15 K [kg/m3] | mass density, 318.15 K [kg/m3] | mass density, 323.15 K [kg/m3] | mass density, 328.15 K [kg/m3] | mass density, 333.15 K [kg/m3] | viscosity, 313.15 K [mPa·s] | viscosity, 318.15 K [mPa·s] | viscosity, 323.15 K [mPa·s] | viscosity, 328.15 K [mPa·s] | viscosity, 333.15 K [mPa·s]
x1 = 0.1003 | 803.008 ± 0.27 | 798.619 ± 0.27 | 794.161 ± 0.27 | 789.608 ± 0.27 | 784.956 ± 0.27 | 2.083 ± 0.064 | 1.795 ± 0.055 | 1.556 ± 0.048 | 1.358 ± 0.042 | 1.211 ± 0.038
x1 = 0.2005 | 817.246 ± 0.29 | 812.957 ± 0.29 | 808.592 ± 0.29 | 804.15 ± 0.29 | 799.616 ± 0.29 | 2.436 ± 0.075 | 2.094 ± 0.065 | 1.814 ± 0.056 | 1.576 ± 0.049 | 1.398 ± 0.043
x1 = 0.3 | 831.847 ± 0.33 | 827.606 ± 0.33 | 823.3 ± 0.33 | 818.925 ± 0.33 | 814.474 ± 0.33 | 2.887 ± 0.089 | 2.466 ± 0.076 | 2.124 ± 0.066 | 1.845 ± 0.057 | 1.637 ± 0.051
x1 = 0.3999 | 847.055 ± 0.37 | 842.848 ± 0.37 | 838.586 ± 0.37 | 834.264 ± 0.37 | 829.873 ± 0.37 | 3.435 ± 0.11 | 2.917 ± 0.091 | 2.499 ± 0.078 | 2.154 ± 0.067 | 1.897 ± 0.059
x1 = 0.5 | 862.397 ± 0.42 | 858.232 ± 0.42 | 853.992 ± 0.42 | 849.702 ± 0.42 | 845.357 ± 0.41 | 4.114 ± 0.13 | 3.47 ± 0.11 | 2.954 ± 0.092 | 2.529 ± 0.079 | 2.212 ± 0.069
x1 = 0.6001 | 877.993 ± 0.47 | 873.856 ± 0.47 | 869.642 ± 0.47 | 865.379 ± 0.47 | 861.071 ± 0.47 | 4.924 ± 0.15 | 4.113 ± 0.13 | 3.477 ± 0.11 | 2.969 ± 0.093 | 2.59 ± 0.081
x1 = 0.7 | 893.97 ± 0.54 | 889.829 ± 0.53 | 885.646 ± 0.53 | 881.417 ± 0.53 | 877.143 ± 0.53 | 6.014 ± 0.19 | 4.982 ± 0.16 | 4.164 ± 0.13 | 3.521 ± 0.11 | 3.042 ± 0.096
x1 = 0.8 | 910.355 ± 0.61 | 906.227 ± 0.6 | 902.064 ± 0.6 | 897.859 ± 0.6 | 893.609 ± 0.59 | 7.28 ± 0.23 | 5.972 ± 0.19 | 4.955 ± 0.16 | 4.163 ± 0.13 | 3.571 ± 0.11
x1 = 0.8999 | 927.181 ± 0.69 | 923.11 ± 0.68 | 918.943 ± 0.68 | 914.764 ± 0.67 | 910.537 ± 0.67 | 8.894 ± 0.28 | 7.219 ± 0.23 | 5.938 ± 0.19 | 4.947 ± 0.16 | 4.21 ± 0.13
x1 = 1 | 944.515 ± 0.77 | 940.423 ± 0.77 | 936.293 ± 0.76 | 932.13 ± 0.76 | 927.93 ± 0.75 | 10.96 ± 0.35 | 8.798 ± 0.28 | 7.166 ± 0.23 | 5.915 ± 0.19 | 4.986 ± 0.16
